We go through 5 compounds from paper PMC6042686 (PLoS Biology, 2018).

The subject of series [1] is BALB/c mice. The note with it: in vivo; for Change of food intake when the compound is added to the food: mouse.
For series [2], the system named is tree shrews. The class given is in vivo, tree shrew (Tupaia belangeri chinensis).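 On Normalized food-intake, tree shrew (individual replicate): normalized to average intake of feed without capsaicin.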
Series [3] addresses tree shrew TRPV1 (tsV1) (Tupaia chinensis, UniProt L8Y7X1). In words: cell-based. The note with it: for EC50: EC50 for activation of tsV1.
For series [4], the target named is T1, mouse TRPV1 (mV1) (Mus musculus, UniProt Q704Y3).
T1 construct: expressed in transfected cells; host or cells: HEK293T
T1 sequence (Q704Y3 whole entry): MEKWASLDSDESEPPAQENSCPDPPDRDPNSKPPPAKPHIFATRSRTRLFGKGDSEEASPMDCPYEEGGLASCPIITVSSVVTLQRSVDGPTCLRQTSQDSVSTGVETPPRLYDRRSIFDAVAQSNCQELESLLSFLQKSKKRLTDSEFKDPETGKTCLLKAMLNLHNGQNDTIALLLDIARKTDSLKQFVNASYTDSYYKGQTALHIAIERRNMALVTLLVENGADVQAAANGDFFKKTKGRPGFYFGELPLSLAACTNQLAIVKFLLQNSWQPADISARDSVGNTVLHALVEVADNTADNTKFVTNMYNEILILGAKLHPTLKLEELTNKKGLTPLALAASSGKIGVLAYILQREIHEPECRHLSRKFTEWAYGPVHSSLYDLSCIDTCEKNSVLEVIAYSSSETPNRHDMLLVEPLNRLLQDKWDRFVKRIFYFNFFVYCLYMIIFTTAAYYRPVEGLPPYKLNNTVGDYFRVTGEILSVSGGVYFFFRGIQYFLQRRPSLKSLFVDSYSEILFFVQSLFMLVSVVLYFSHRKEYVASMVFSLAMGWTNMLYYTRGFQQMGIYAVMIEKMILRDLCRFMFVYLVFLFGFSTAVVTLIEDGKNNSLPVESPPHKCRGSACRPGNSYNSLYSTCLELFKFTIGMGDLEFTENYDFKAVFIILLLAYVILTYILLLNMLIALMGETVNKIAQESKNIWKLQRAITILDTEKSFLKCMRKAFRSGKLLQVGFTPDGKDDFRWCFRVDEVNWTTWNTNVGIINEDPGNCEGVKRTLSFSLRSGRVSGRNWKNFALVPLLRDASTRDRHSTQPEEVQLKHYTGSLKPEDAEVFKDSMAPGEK
Briefly: cell-based. The note with it: EC50 for activation of mV1.

Series [5] concerns the target T2, human TRPV1 (hV1) (Homo sapiens, UniProt Q8NER1).
T2 construct: expressed in transfected cells; host or cells: HEK293T
Briefly: cell-based.

In series [6] the target is polar bear TRPV1 (pV1) (Ursus maritimus, UniProt A0A384CG69). Briefly: cell-based.
Sequence of polar bear TRPV1 (pV1) (A0A384CG69 1-841): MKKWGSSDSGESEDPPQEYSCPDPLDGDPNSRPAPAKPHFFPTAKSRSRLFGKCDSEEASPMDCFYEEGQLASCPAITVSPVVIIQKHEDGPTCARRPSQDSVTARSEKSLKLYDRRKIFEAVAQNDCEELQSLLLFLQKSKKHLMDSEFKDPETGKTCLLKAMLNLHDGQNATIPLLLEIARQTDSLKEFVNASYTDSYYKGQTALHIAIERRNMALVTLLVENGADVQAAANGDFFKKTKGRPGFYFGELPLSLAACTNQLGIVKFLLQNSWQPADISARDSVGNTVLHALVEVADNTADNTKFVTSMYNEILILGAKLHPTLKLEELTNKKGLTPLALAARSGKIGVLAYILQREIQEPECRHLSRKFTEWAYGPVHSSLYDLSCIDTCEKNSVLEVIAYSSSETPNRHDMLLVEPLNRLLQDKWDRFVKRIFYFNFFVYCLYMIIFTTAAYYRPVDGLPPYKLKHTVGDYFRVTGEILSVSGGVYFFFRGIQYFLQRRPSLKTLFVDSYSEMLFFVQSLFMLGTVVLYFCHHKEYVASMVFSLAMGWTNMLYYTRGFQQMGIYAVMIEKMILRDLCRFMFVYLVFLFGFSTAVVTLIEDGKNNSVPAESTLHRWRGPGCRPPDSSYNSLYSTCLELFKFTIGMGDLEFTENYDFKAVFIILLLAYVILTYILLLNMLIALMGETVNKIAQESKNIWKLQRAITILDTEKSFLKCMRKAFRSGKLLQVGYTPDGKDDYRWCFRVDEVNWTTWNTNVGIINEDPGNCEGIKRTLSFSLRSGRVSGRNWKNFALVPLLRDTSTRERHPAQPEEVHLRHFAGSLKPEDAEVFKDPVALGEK
Series [7] deals with tsV1_M579T (Tupaia chinensis, UniProt L8Y7X1, M598T). Briefly: cell-based. Type of series: cell-based, tree shrew.
Sequence of tsV1_M579T (L8Y7X1 1-828 M598T): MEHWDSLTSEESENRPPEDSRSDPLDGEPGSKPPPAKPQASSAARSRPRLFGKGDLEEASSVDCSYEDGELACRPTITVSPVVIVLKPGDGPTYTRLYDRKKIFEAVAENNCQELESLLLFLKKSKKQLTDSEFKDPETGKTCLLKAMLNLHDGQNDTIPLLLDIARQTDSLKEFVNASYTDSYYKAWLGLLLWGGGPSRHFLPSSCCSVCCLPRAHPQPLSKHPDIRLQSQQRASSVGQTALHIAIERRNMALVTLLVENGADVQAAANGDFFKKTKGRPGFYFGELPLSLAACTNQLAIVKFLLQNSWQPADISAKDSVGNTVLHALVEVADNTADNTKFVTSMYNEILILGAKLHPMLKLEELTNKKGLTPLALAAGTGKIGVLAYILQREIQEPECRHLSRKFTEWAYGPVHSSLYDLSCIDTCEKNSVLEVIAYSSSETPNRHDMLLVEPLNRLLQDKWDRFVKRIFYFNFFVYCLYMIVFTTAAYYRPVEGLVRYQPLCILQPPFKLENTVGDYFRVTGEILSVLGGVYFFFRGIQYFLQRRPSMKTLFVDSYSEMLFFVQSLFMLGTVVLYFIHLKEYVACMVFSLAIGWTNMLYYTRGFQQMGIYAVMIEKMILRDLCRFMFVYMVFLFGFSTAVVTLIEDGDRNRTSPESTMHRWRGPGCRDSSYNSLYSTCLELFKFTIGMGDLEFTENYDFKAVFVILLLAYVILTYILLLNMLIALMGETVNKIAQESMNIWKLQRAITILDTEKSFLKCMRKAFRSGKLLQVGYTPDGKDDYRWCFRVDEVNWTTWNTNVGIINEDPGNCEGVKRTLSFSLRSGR
Series [8] concerns the target tsV1_M579S (Tupaia chinensis, UniProt L8Y7X1, M598S). In words: cell-based. Also noted: species or system tree shrew.
The target in series [9] is tsV1_M579G (Tupaia chinensis, UniProt L8Y7X1, M598G). In words: cell-based. On the set-up: species or system tree shrew.
Sequence of tsV1_M579G (L8Y7X1 1-828 M598G): as the sequence (L8Y7X1 1-828 M598T) above, with T598G counted along it
The target in series [10] is tsV1_M579A (Tupaia chinensis, UniProt L8Y7X1, M598A). Briefly: cell-based. Also noted: species or system tree shrew.
Sequence of tsV1_M579A (L8Y7X1 1-828 M598A): as the sequence (L8Y7X1 1-828 M598T) above, with T598A counted along it
The target of series [11] is tsV1_M579V (Tupaia chinensis, UniProt L8Y7X1, M598V). In words: cell-based. On the set-up: species or system tree shrew.
Sequence of tsV1_M579V (L8Y7X1 1-828 M598V): as the sequence (L8Y7X1 1-828 M598T) above, with T598V counted along it
Series [12] concerns the target T3, mV1_T551M (Mus musculus, UniProt Q704Y3, T551M).
T3 construct: expressed in transfected cells; host or cells: HEK293T (patch clamp); HEK293 (calcium imaging)
Briefly: cell-based.

In series [13] the target is T3, mV1_T551M. Type of series: cell-based.
The test system of series [14] is tree shrew DRG neurons. Type of series: cell-based.
For series [15], the target named is T4, mV1_T551V (Mus musculus, UniProt Q704Y3, T551V).
T4 construct: expressed in transfected cells; host or cells: HEK293T
T4 sequence (Q704Y3 whole entry T551V): as the sequence (Q704Y3 whole entry) above, with T551V counted along it
In words: cell-based.

In series [16] the test system is BALB/c mice. The note with it: in vivo.
In series [17] the test system is tree shrew. The note with it: in vivo.
Series [18] has as its system mouse paw tissue. The note with it: in vivo.

Values joined by “and” are separate entries in the source; they are usually repeats but may differ in a detail not shown here. Equal values may be shown once. Read-outs that look alike come from different tables or passages of the source.
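Wherever Normalized food-intake, mouse (individual replicate) is given: normalized to average intake of feed without capsaicin.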

Sequence of tree shrew TRPV1 (tsV1) (L8Y7X1 1-828): as the sequence (L8Y7X1 1-828 M598T) above, with T598M counted along it
T3 sequence (Q704Y3 whole entry T551M): as the sequence (Q704Y3 whole entry) above, with T551M counted along it
Sequence of tsV1_M579S (L8Y7X1 1-828 M598S): as the sequence (L8Y7X1 1-828 M598T) above, with T598S counted along it
T2 sequence (Q8NER1 whole entry): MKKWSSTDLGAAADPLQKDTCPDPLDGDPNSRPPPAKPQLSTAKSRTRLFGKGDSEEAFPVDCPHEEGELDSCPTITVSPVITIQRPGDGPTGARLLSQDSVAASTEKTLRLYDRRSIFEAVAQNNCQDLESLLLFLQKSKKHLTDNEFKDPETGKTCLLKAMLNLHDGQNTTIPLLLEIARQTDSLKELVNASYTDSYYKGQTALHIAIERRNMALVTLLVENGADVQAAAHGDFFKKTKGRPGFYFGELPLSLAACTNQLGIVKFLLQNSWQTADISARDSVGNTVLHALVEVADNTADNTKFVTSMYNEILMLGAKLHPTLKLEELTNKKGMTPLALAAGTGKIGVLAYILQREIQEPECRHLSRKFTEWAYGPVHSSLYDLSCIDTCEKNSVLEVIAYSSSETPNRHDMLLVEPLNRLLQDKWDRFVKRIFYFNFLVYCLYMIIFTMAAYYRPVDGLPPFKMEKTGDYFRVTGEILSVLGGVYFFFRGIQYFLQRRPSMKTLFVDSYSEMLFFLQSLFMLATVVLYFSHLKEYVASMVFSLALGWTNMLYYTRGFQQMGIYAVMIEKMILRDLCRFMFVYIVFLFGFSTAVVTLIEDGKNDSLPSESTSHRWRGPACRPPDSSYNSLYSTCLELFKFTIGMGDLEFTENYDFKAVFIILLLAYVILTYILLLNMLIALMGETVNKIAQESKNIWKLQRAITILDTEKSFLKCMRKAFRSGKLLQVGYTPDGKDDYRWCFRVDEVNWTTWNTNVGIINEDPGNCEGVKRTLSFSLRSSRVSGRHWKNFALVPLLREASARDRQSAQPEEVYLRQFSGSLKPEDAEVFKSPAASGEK

For orientation: EC50 means the concentration needed to bring the measured effect to its halfway point. Lower therefore signals an effect from little substance. As to `CCCCC/C=C/C=C/C(=O)NCCc1ccc(O)c(OC)c1` [Cap2], the “Change of food intake when the compound is added to the food” value (“Change of food intake” for short) is listed as “significantly decreased” in series [1] and “slight increase” in [2] (in vivo). The “Normalized food-intake, AVE_tree shrew” value in series [2] (in vivo) is 1.13 and 1.269 and 1.38 and 1.28. The EC50 is 1900 µM and ~1900 µM in [3]; 0.74 ± 0.05 µM in [4]; 5.73 ± 0.05 µM in series [5]; 0.87 ± 0.04 µM in [6]; 2.34 ± 0.26 µM in series [7]; 5.46 µM in series [8]. The EC50 in series [9] stood at 920 µM; in series [10], 1070 µM; in series [11], 830 µM; in series [12] it was 151.4 ± 0.12 µM. For the same compound, the “EC50 of tsV1 larger than the EC50 of mV1” value in series [3] (hek293t cells) is “approximately 2,500 fold”. Also, the “Shift of concentration-response curve relative to wild-type tsV1” value in [7] and in [8] was “large shifts to the left” each time. Also, the “Change in the EC50 on mutating the homologous site (mV1_T551M or tsV1_M579T)” value in series [7] (hek293t cells) was “approximately 1,000 fold”. Also, in [7] (hek293t cells), the “EC50 of tsV1_M579T lower than EC50 of wild-type tsV1” value is reported as “approximately 1,000 fold”. The “Calcium signal in mV1_T551M-expressing HEK293 cells” value in [13] is “largely diminished calcium signal”.
In the case of `COc1cc(CNC(=O)CCCC/C=C/C(C)C)ccc1O` [capsaicin], in [1], the “Normalized food-intake, mouse (individual replicate)” value is 0.359 and 0.496 and 0.524 and 0.168 and 0.264 and 0.288 and 0.063 and 0.143 and 0.169 and 0.008 and 0.009 and 0.007; the “Change of food intake” value is “significantly reduced in a concentration-dependent manner”. Also, in series [2] (24 hours, n = 3), the “Normalized food-intake, AVE_tree shrew” value is 1.087 and 1.119 and 1.28 and 1.255. For the same compound, in series [2] (in vivo), the “Change of food intake” value is “no such change”; the “Normalized food-intake, tree shrew (individual replicate)” value is 1.004 and 1.211 and 1.046 and 1.034 and 1.223 and 1.101 and 1.209 and 1.372 and 1.259 and 1.119 and 1.381 and 1.265. The “Calcium response of DRG neurons” value in series [14] is listed as “much weaker response”. This compound yielded an EC50 in [3] of 5.2 ± 0.13 µM. The EC50 in series [4] was 0.2 µM and ~0.2 µM. Moreover, in series [7], the “Change in the EC50 on mutating the homologous site (mV1_T551M or tsV1_M579T)” value was “approximately 10 fold” and the “EC50 of tsV1_M579T lower than EC50 of wild-type tsV1” value is “approximately 50 fold”. Besides, in series [12], the EC50 was ~2.1 µM. Besides, the EC50 in series [15] is ~1.5 µM. In addition, the “paw licking after capsaicin (S1B Fig), mouse, single animals” value in [16] was 74.03 and 80.09 and 18.24 and 91.1 and 11.82 and 100.82 and 8.03 and 45.87 and 22.39 and 126.21. In addition, in series [16] (mouse), the “paw licking after capsaicin (S1B Fig), AVE_mouse” value was 55.056 and 60.664. In [17], the “Capsaicin-induced acute pain behavior (paw licking)” value is on record as “absent”; the “paw licking after capsaicin (S1B Fig), AVE_tree shrew” value was 1.836 and 1.5525; the “paw licking after capsaicin (S1B Fig), tree shrew, single animals” value is 3.34 and 1.67 and 2.84 and 0.95 and 1.47 and 1.89 and 1.46 and 0.74 and 2 and 2.07 and 2.32 and 2.01 and 1.28. Further, the “Paw tissue histology (H&E) after hind paw injection” value in [18] is “significantly increased”.
Consider `CCCCC[C@H](O)CC(=O)CCc1ccc(O)c(OC)c1` [gingerol], for which the “Change in the EC50 on mutating the homologous site (mV1_T551M or tsV1_M579T)” value in series [7] was “approximately 6 fold”.
As for `O=C(/C=C/C=C/c1ccc2c(c1)OCO2)N1CCCCC1` [piperine], the “Change in the EC50 on mutating the homologous site (mV1_T551M or tsV1_M579T)” value in series [7] (hek293t cells) was “approximately 2 fold”.
With `CCCCC/C=C/C(=O)CCc1ccc(O)c(OC)c1` [shogaol], the “Change in the EC50 on mutating the homologous site (mV1_T551M or tsV1_M579T)” value in series [7] (hek293t cells) is recorded as “approximately 10 fold”.
